Data reported in the supplement of paper PMC4862054.

Tests used:
Settings in all cases: incubation time: 72 h
CAL-51 [1] = test: normalised response (% of control), CellTiter-Glo; higher = more viable cells (100 = DMSO, 0 = benzethonium chloride kill control)
Method in brief: (§1)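 In 384-well plates holding compound at 5 concentrations in 10-fold steps over a 10,000-fold range specific to each compound, breast cancer cell lines were seeded as 20 µl suspension and incubated 72 h. CellTox Green fluorescence was measured at 485/520 nm, after which CellTiter-Glo luminescence was measured following 10 min at room temperature. Plate signals were normalised to 0.1 % DMSO (100) and a positive kill control (0), and each value is the normalised signal at a single concentration.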

CAL-85-1 [2] = test: as above
Method in brief: as §1

HCC1143 [3] = test: as above
Method in brief: as §1

MDA-MB-231 [4] = test: as above
Method in brief: as §1

CAL-120 [5] = test: as above
Method in brief: as §1

MDA-MB-436 [6] = test: as above
Method in brief: as §1

MDA-MB-453 [7] = test: as above
Method in brief: as §1

HCC1937 [8] = test: as above
Method in brief: as §1

HDQ-P1 [9] = test: as above
Method in brief: as §1

MFM-223 [10] = test: as above
Method in brief: as §1

DU-4475 [11] = test: as above
Method in brief: as §1

CAL-148 [12] = test: as above
Method in brief: as §1

SK-BR-3 = test: as above
Method in brief: as §1

HCC1599 [13] = test: as above
Method in brief: as §1

BT-549 [14] = test: as above
Method in brief: as §1

MDA-MB-468 [15] = test: as above
Method in brief: as §1

BT-474 [16] = test: as above
Method in brief: as §1

MCF-10A [17] = test: as above
Method in brief: as §1

Hs578T [18] = test: as above
Method in brief: as §1

CAL-51 [19] = test: normalised response (% of control), CellTox Green; higher = less cell death (100 = DMSO, 0 = benzethonium chloride kill control)
Method in brief: as §1

CAL-85-1 [20] = test: as above
Method in brief: as §1

HCC1143 [21] = test: as above
Method in brief: as §1

MDA-MB-231 [22] = test: as above
Method in brief: as §1

CAL-120 [23] = test: as above
Method in brief: as §1

MDA-MB-436 [24] = test: as above
Method in brief: as §1

MDA-MB-453 [25] = test: as above
Method in brief: as §1

HCC1937 [26] = test: as above
Method in brief: as §1

HDQ-P1 [27] = test: as above
Method in brief: as §1

MFM-223 [28] = test: as above
Method in brief: as §1

DU-4475 [29] = test: as above
Method in brief: as §1

CAL-148 [30] = test: as above
Method in brief: as §1

HCC1599 [31] = test: as above
Method in brief: as §1

BT-549 [32] = test: as above
Method in brief: as §1

MDA-MB-468 [33] = test: as above
Method in brief: as §1

BT-474 [34] = test: as above
Method in brief: as §1

MCF-10A [35] = test: as above
Method in brief: as §1

Hs578T [36] = test: as above
Method in brief: as §1

SMILES | normalised response (CAL-51 [1]) [%] | normalised response (CAL-85-1 [2]) [%] | normalised response (HCC1143 [3]) [%] | normalised response (MDA-MB-231 [4]) [%] | normalised response (CAL-120 [5]) [%] | normalised response (MDA-MB-436 [6]) [%] | normalised response (MDA-MB-453 [7]) [%] | normalised response (HCC1937 [8]) [%] | normalised response (HDQ-P1 [9]) [%] | normalised response (MFM-223 [10]) [%] | normalised response (DU-4475 [11]) [%] | normalised response (CAL-148 [12]) [%] | normalised response (SK-BR-3) [%] | normalised response (HCC1599 [13]) [%] | normalised response (BT-549 [14]) [%] | normalised response (MDA-MB-468 [15]) [%] | normalised response (BT-474 [16]) [%] | normalised response (MCF-10A [17]) [%] | normalised response (Hs578T [18]) [%] | normalised response (CAL-51 [19]) [%] | normalised response (CAL-85-1 [20]) [%] | normalised response (HCC1143 [21]) [%] | normalised response (MDA-MB-231 [22]) [%] | normalised response (CAL-120 [23]) [%] | normalised response (MDA-MB-436 [24]) [%] | normalised response (MDA-MB-453 [25]) [%] | normalised response (HCC1937 [26]) [%] | normalised response (HDQ-P1 [27]) [%] | normalised response (MFM-223 [28]) [%] | normalised response (DU-4475 [29]) [%] | normalised response (CAL-148 [30]) [%] | normalised response (HCC1599 [31]) [%] | normalised response (BT-549 [32]) [%] | normalised response (MDA-MB-468 [33]) [%] | normalised response (BT-474 [34]) [%] | normalised response (MCF-10A [35]) [%] | normalised response (Hs578T [36]) [%]
O=C(NC[C@H](O)CO)c1ccncc1Nc1ccc(I)cc1F [Pimasertib] (1000 nM) | 73 | 61.9 | 84.2 | 72.1 | 73.6 | 95.5 | 105 | 84.3 | 62.1 | 94 | 0.43 | 83.5 | 86.1 | 91.6 | 96.1 | 87.4 | 69.8 | 31.2 | 86.2 | 93.7 | 67.4 | 89.5 | 63.2 | 83.4 | 56.7 | 107 | 109 | 77.2 | 100 | 62.6 | 105 | 111 | 142 | 150 | 78.8 | 106 | 103
CC(C)N(CCCNC(=O)Nc1ccc(C(C)(C)C)cc1)C[C@H]1O[C@@H](n2cc(Br)c3c(N)ncnc32)[C@H](O)[C@@H]1O [SGC0946] (1000 nM) | 118 | 102 | 96.5 | 92.1 | 100 | 93.4 | 104 | 97.3 | 102 | 94 | 98.4 | 91.3 | 95.7 | 102 | 95.5 | 86.5 | 103 | 97.9 | 103 | 100 | 96.3 | – | 101 | 95.7 | 97.8 | 105 | 93.1 | 103 | 98.4 | 95.8 | – | 91.8 | 99.9 | 111 | 97.3 | 107 | –
Cc1cccc(-c2nn3c(c2-c2ccnc4ccc(C(N)=O)cc24)CCC3)n1 [Galunisertib] (100 nM) | 88.5 | 104 | 109 | 108 | 104 | 110 | 105 | 104 | 101 | 107 | 104 | 101 | 105 | 109 | 94.3 | 107 | 104 | 109 | 91.6 | 112 | 102 | 112 | 120 | 101 | 105 | 114 | 93.8 | 70.6 | 98.5 | 107 | 108 | 109 | 121 | 170 | 102 | 59.8 | 87.6
O=S(=O)(c1cccc2cnccc12)N1CCCNCC1 [Fasudil] (5000 nM) | 94.9 | 122 | 96.3 | 106 | 89.4 | 113 | 95.7 | 105 | 101 | 102 | 96.8 | 97.1 | 107 | 101 | 95.9 | 105 | 96.5 | 89 | 99.7 | 110 | 102 | 98.9 | 97.6 | 94.5 | 95.3 | 100 | 109 | 75.7 | 94.8 | 99 | 98.2 | 103 | 99.9 | 70.9 | 97.1 | 83.4 | 66
c1cc(CN2CCCNCCNCCCNCC2)ccc1CN1CCCNCCNCCCNCC1 [Plerixafor] (1000 nM) | 111 | 96.1 | 97.3 | 96.9 | 111 | 102 | 80.1 | 101 | 101 | 87.3 | 92.1 | 90.4 | 80 | 102 | 105 | 98.1 | 93.7 | 81.8 | 91.4 | 89.1 | 105 | – | 82.7 | 96.6 | – | 99 | 54.1 | 58.5 | 97.4 | 91.8 | 92.3 | 88.8 | 107 | 85 | 95.2 | 86.6 | –
